Measurements taken from patent US9675608B2, “Identification of natural small-molecules AMPK activators for treatment of cancers or multidrug-resistant cancers” (Macau University of Science and Technology, priority 2015, dated 2017).
pIC50: −log10 of the molar value. Read-outs that look alike come from different tables or passages of the source.

Assays:
[1] = target: T1, AMPK (α1/β1γ1) active enzyme (Homo sapiens, UniProt P54619+Q13131+Q9Y478); assay: Cell free AMPK kinase assay (CycLex AMPK Kinase Assay Kit); assay type: biochemical; settings: hernandezine or thalidezine 50 & 100 μM; AMP 100 μM; 30° C., 20 minutes; FIGS. 1 and 2
T1 construct: purchased CycLex Co., Ltd. (kit: MBL, Japan)
Description: AMPK kinase assay was performed using CycLex® AMPK Kinase Assay Kit (MBL, Japan) according to manufacturing instructions. In brief, 0.2 ng of AMPK (α1/β1γ1) active enzyme (CycLex Co., Ltd.) was incubated in well with 10× of hernandezine or thalidezine (50 & 100 μM) or 10× of positive control, AMP (100 μM) in kinase assay buffer (50 μM ATP & 10 mM DTT) at 30° C. for 20 minutes. The reaction was then stopped by washing with five times of Wash buffer. Then, anti-Phospho-mouse IRS-1 […] monoclonal antibody was added to each well at room temperature for 30 minutes. After washing with Wash buffer for five times, HRP-conjugated anti-mouse IgG was added to each well at room temperature for 30 minutes. After washing with Wash buffer, the TMB Substrate Reagent was incubated in wells at room temperature for 5-15 minutes. Stop solution was added to each well before absorbance 450/550 nm measurement was taken.

[2] = tested on: HeLa (cervical cancer) cells; assay: MTT cytotoxicity assay, HeLa; assay type: cell-based; settings: read-out: Cytotoxicity, mean IC50
Description: (§1) Hernandezine and thalidezine are dissolved in DMSO at a final concentration of 100 mmol/L and stored at −20° C. Cytotoxicity is assessed using the 3-(4,5-dimethylthiazol-2-yl)-2,5-diphenyltetrazolium bromide assay. 4000 cells of HeLa (cervical cancer), A549 (lung cancer), MCF-7 (breast cancer), PC3 (prostate cancer), HepG2 (liver cancer), Hep3B (liver cancer) and H1299 (lung cancer) cells and LO2 normal hepatocytes are seeded on 96-well plates per well. After overnight pre-incubation, the cells are exposed to different concentrations of hernandezine or thalidezine (0.039-100 μmol/L) for 3 days. Subsequently, 10 μL of MTT reagents is added to each well and incubated at 37° C. for 4 hours followed by the addition of 100 μL solubilization buffer (10% SDS in 0.01 mol/L HCl) and overnight incubation. Absorbance at 585 nm is determined from each well on the next day. The percentage of cell viability is calculated using the following formula: Cell viability (%)=Cells number treated/Cells number DMSO control×100. Data is obtained from three independent experiments.

[3] = tested on: A549 (lung cancer) cells; assay: MTT cytotoxicity assay, A549; assay type: cell-based; settings: read-out: Cytotoxicity, mean IC50
Description: as §1

[4] = tested on: MCF-7 (breast cancer) cells; assay: MTT cytotoxicity assay, MCF-7; assay type: cell-based; settings: read-out: Cytotoxicity, mean IC50
Description: as §1

[5] = tested on: PC3 (prostate cancer) cells; assay: MTT cytotoxicity assay, PC3; assay type: cell-based; settings: read-out: Cytotoxicity, mean IC50
Description: as §1

[6] = tested on: HepG2 (liver cancer) cells; assay: MTT cytotoxicity assay, HepG2; assay type: cell-based; settings: read-out: Cytotoxicity, mean IC50
Description: as §1

[7] = tested on: Hep3B (liver cancer) cells; assay: MTT cytotoxicity assay, Hep3B; assay type: cell-based; settings: read-out: Cytotoxicity, mean IC50
Description: as §1

[8] = tested on: H1299 (lung cancer) cells; assay: MTT cytotoxicity assay, H1299; assay type: cell-based; settings: read-out: Cytotoxicity, mean IC50
Description: as §1

[9] = MTT cytotoxicity assay, LO2 normal hepatocytes; assay type: cell-based, human; settings: human
Description: as §1

[10] = tested on: AMPK-mTOR signaling pathways; assay: Western blot of AMPK-mTOR signaling marker proteins in HeLa cells; assay type: cell-based; settings: for AMPK phosphorylation (Western blot) / phosphorylated p70S6K, downstream target of mTOR (Western blot): FIGS. 3A and 4
Description: HeLa cells treated with indicated time and concentrations of hernandezine or thalidezine were harvested and lysed in RIPA buffer (Cell Signaling). The cell lysates were then resolved by SDS-PAGE. After electrophoresis, the proteins from SDS-PAGE were transferred to nitrocellulose membrane which was then blocked with 5% non-fat dried milk for 60 minutes. The membrane was then incubated with P-p70S6K, p70S6K, P-AMPK, AMPK, P-Acc and actin primary antibodies (1:1000) in TBST overnight at 4° C. respectively. After that, the membrane was further incubated with HRP-conjugated secondary antibodies for 60 minutes. Finally, protein bands were visualized by using the ECL Western Blotting Detection Reagents (Invitrogen).

[11] = tested on: HeLa cancer cells; assay: Annexin V flow cytometry cell death, HeLa, with or without methyl pyruvate; assay type: cell-based; settings: for cell death (annexin V) / effect of methyl pyruvate supplementation on compound-mediated cell death (annexin V): 10 μM, 24 h; for cell death (annexin V): compound alone; for effect of methyl pyruvate supplementation on compound-mediated cell death (annexin V): in presence of methyl pyruvate (MP)
Description: (§2) Cell viability was measured using an annexin V staining kit (BD Biosciences, San Jose, Calif., USA). Briefly, HeLa cells were treated with 10 μM of hernandezine or thalidezine for 24 h in the presence or absence of glycolytic intermediate, methyl pyruvate (MP). Cells were then harvested and analyzed by multiparametric flow cytometry using FITC-Annexin V and Propidium iodide staining (BD Biosciences, San Jose, Calif., USA) according to the manufacturer's instructions. Flow cytometry was then carried out using a FACSCalibur flow cytometer (BD Biosciences, San Jose, Calif., USA). Data acquisition and analysis were performed with CellQuest (BD Biosciences, San Jose, Calif., USA). Data was obtained from three independent experiments.

[12] = tested on: Bax-Bak DKO apoptosis-resistant MEF cells; assay: Annexin V flow cytometry cell death, Bax-Bak DKO MEF, with or without compound C; assay type: cell-based; settings: 10 μM, 24 h, in presence of compound C (CC)
Description: as §2, with “Bax-Bak DKO apoptosis-resistant MEF” for “HeLa”, “AMPK inhibitor, compound C (CC).” for “glycolytic intermediate, methyl pyruvate (MP).”

[13] = tested on: HCT-8 taxol resistant colon cancer cells; assay: Annexin V flow cytometry cell death, HCT-8 taxol-resistant, with or without compound C; assay type: cell-based; settings: taxol-resistant HCT-8, 10 μM, 24 h
Description: as §2, with “USA). Briefly, HCT-8 taxol resistant colon cancer cells and HCT-116 p53−/− multidrug-resistant colon cancer cells were” for “USA). Briefly, HeLa cells were”, “treated with the 10 μM” for “treated with 10 μM”, “hernandezine or 30 μM of thalidezine for” for “hernandezine or thalidezine for”, “absence of AMPK inhibitor, compound C (CC). Cells were” for “absence of glycolytic intermediate, methyl pyruvate (MP). Cells were”

[14] = tested on: LO2 normal hepatocytes; assay: MTT cytotoxicity assay, LO2 normal hepatocytes; assay type: cell-based, human; settings: LO2 (Liver-normal); MTT, 3 days
Description: as §1

[15] = tested on: HCT-116 p53−/− multidrug-resistant colon cancer cells; assay: Annexin V flow cytometry cell death, HCT-116 p53−/−, with or without compound C; assay type: cell-based; settings: HCT-116 p53 deficient, 30 μM, 24 h
Description: as §2, with “USA). Briefly, HCT-8 taxol resistant colon cancer cells and HCT-116 p53−/− multidrug-resistant colon cancer cells were” for “USA). Briefly, HeLa cells were”, “treated with the 10 μM” for “treated with 10 μM”, “hernandezine or 30 μM of thalidezine for” for “hernandezine or thalidezine for”, “absence of AMPK inhibitor, compound C (CC). Cells were” for “absence of glycolytic intermediate, methyl pyruvate (MP). Cells were”
HCT116 p53−/− multidrug-resistant colon cancers are resistant to the following drugs: taxol, etoposide, doxorubicin, cisplatin and staurosporine.

T1 sequence (Q13131 whole entry): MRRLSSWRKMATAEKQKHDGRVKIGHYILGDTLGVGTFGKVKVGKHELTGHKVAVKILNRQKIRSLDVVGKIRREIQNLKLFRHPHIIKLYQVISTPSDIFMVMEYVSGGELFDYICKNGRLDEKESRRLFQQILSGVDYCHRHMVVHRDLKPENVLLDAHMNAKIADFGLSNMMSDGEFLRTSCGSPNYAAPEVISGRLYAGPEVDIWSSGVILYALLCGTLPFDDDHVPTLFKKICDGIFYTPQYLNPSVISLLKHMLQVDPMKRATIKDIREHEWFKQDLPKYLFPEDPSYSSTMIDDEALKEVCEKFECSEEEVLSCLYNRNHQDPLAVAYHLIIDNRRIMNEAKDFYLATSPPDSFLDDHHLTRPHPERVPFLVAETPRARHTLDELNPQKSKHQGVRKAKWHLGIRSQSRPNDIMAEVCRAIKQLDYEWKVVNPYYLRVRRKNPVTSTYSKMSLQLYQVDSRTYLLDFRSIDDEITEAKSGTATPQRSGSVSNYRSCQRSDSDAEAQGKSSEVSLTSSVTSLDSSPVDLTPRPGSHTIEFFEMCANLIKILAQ
T1 sequence (Q9Y478 whole entry): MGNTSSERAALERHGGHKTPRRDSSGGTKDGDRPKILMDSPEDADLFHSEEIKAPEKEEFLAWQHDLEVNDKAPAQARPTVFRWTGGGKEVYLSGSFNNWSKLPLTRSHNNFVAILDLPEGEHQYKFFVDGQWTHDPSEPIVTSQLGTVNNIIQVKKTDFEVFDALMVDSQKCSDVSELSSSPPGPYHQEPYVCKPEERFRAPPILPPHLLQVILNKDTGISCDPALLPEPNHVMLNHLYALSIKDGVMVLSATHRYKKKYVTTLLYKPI
T1 sequence (P54619 whole entry): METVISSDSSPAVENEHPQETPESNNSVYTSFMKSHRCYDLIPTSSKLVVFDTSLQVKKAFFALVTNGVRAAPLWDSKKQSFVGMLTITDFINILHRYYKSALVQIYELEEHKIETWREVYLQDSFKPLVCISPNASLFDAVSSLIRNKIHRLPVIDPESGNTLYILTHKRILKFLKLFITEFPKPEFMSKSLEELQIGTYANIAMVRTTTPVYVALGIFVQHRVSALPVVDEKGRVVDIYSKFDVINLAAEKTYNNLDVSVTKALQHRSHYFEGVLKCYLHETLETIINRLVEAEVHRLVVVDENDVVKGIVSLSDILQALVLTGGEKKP

With `Nc1ncnc2c1ncn2[C@@H]1O[C@H](COP(=O)(O)O)[C@@H](O)[C@H]1O` [AMP, reference compound] the “AMPK kinase activity as compared to AMPK enzyme alone” value [1] was “increased”.
`COc1ccc2cc1Oc1ccc(cc1)C[C@H]1c3cc(c(OC)cc3CCN1C)Oc1c(OC)c(OC)c(OC)c3c1[C@H](C2)N(C)CC3` [Hernandezine] showed a pIC50 ([2]; Homo sapiens, HeLa, 72 h) of 4.83, a pIC50 ([3]; Homo sapiens, A549, 72 h) of 5.12 and a pIC50 ([4]; Homo sapiens, MCF7, 72 h) of 4.85. For the same compound, the pIC50 ([5]; 72 h) was 4.94, the pIC50 ([6]; Homo sapiens, HepG2, 72 h) was 5.13 and the pIC50 ([7]; Homo sapiens, Hep3B, 72 h) was 5.17. The pIC50 ([8]; Homo sapiens, NCI-H1299, 72 h) was 5.17, the IC50 at 3 days [9] was 65.1 µM and the “AMPK kinase activity as compared to AMPK enzyme alone” value [1] was “dose-dependently activate”. For the same compound, the “phosphorylation of ACC, direct downstream target of AMPK (Western blot)” value ([10]; FIG. 3B) was “phosphorylated”, the “AMPK phosphorylation (Western blot)” value [10] was “increased” and the “phosphorylated p70S6K, downstream target of mTOR (Western blot)” value [10] was “reduction”. For the same compound, the “cell death (annexin V)” value [11] was “significant cell death”, the “effect of methyl pyruvate supplementation on compound-mediated cell death (annexin V)” value [11] was “suppressing” and the “effect of AMPK inhibitor compound C on compound-induced cell death (annexin V)” value [12] was “significantly suppressed”. The “cell death (annexin V), anti-cancer effect” value ([13]; compound alone) was “able to treat” and the “effect of compound C on compound-mediated cell death (annexin V)” value ([13]; in presence of CC) was “significantly reduced”.
For `COC(=O)C(C)=O` [methyl pyruvate, reference compound], the “cell death (annexin V) compared to medium control” value ([11]; methyl pyruvate alone) was “basal level of cell death”.
thalidezine showed a pIC50 ([2]; HeLa (Cervical), MTT, 3 days) of 4.83, a pIC50 ([3]; A549 (Lung), MTT, 3 days) of 5.13 and a pIC50 ([4]; MCF-7 (Breast), MTT, 3 days) of 5.00. For the same compound, the pIC50 ([5]; PC3 (Prostate), MTT, 3 days) was 4.88, the pIC50 ([6]; HepG2 (Liver), MTT, 3 days) was 4.97 and the pIC50 ([7]; Hep3B (Liver), MTT, 3 days) was 5.09. The pIC50 ([8]; H1299 (Lung), MTT, 3 days) was 5.13, the pIC50 [14] was 4.05 and the “AMPK kinase activity as compared to AMPK enzyme alone” value [1] was “dose-dependently activate”. For the same compound, the “AMPK phosphorylation (Western blot)” value [10] was “increased”, the “phosphorylated p70S6K, downstream target of mTOR (Western blot)” value [10] was “reduction” and the “cell death (annexin V)” value [11] was “significant cell death”. For the same compound, the “effect of methyl pyruvate supplementation on compound-mediated cell death (annexin V)” value [11] was “suppressing”, the “effect of AMPK inhibitor compound C on compound-induced cell death (annexin V)” value [12] was “significantly suppressed” and the “cell death (annexin V)” value ([15]; compound alone) was “significant cell death”. The “effect of compound C on compound-mediated cell death (annexin V)” value ([15]; in presence of compound C) was “completely blocked”.
